In patent publication US12319703B2, “Macrocyclic fused pyrazoles as Mcl-1 inhibitors” (ASCENTAGE PHARMA (SUZHOU) CO., LTD., priority 2019, dated 2025):
pIC50: −log10 of the molar value.

Experiments:
[1] = target: T1, Mcl-1 protein (residues 171-323) (Homo sapiens, UniProt Q07820); assay: Inhibition of Mcl-1 by fluorescence polarization (FP) competitive binding assay; conditions: FAM-Bid tracer 2 nM, Mcl-1 20 nM, 30 min
T1 construct: Tag-free Mcl-1 protein (residues 171-323) was used in the FP assay
Method: Inhibition of Mcl-1 by Fluorescence Polarization (FP) Assay.
The method used a fluorescein labelled peptide (FAM-Bid) which binds to the Mcl-1 protein leading to an increased anisotropy measured in milli-polarization (mP) values using a plate reader.
A 10-points serial dilution of each compound was prepared in DMSO and 5 μL solution was transferred into flat bottomed, 96-well back plate (final DMSO concentration 5%). 120 μL of Buffer (PBS, 0.01% BGG (Sigma Cat. #SRE0011), 0.01% Triton X-100), containing the Fluorescein labelled peptide (Final concentration 2 nM) and Mcl-1 protein (final concentration 20 nM) was then added. […] 10-points dose response curves were plotted with GraphPad software using Sigmoidal Dose-Response Model and the IC50 values were determined by nonlinear regression fitting of the competition curves.

[2] = system: OPM-2 cells; assay: Cell viability assay (OPM-2 cells), CCK-8; format: cell-based; conditions: Homo sapiens, OPM-2, 24 h, WST, 5% FBS, read-out: OPM2 (WST, 5% FBS)
Method: Cell Viability Assay (OPM-2 Cells)
OPM-2 cells were obtained from Deutsche Sammlung von Mikroorganismen und Zellkulturen GmbH (DSMZ). […]
The effect of representative Compounds of the Disclosure on cell viability was determined using Cell Counting Kit-8 (CCK-8) assay (Shanghai Life iLab Bio Technology) according to the manufacturer's instructions. Each tested compound was serially diluted in culture medium, 100 μL of the compound dilution was added into 96-well plates. 100 μL of an OPM-2 cell suspension (20000 cells/well) in culture medium were seeded into the corresponding well of the plate and the cells were incubated at 37° C. in an atmosphere of 5% CO2 for 24 hours. In the next day, 20 μL of CCK-8 solution was added to each well of the plate and incubated for 4 hours.
The plates were read at 450 nm on the microplate spectrophotometer (SpectraMax plus 384, Molecular devices). The readings were normalized to the vehicle cells, and the IC50 was calculated by nonlinear regression analysis using GraphPad Prism 6 software.

[3] = system: NCI-H929 cells; assay: Cell viability assay (NCI-H929 cells), CCK-8; format: cell-based; conditions: Homo sapiens, NCI-H929, 24 h, WST, 5% FBS
Method: Cell Viability Assay (NCI-H929 Cells)
NCI-H929 cells were obtained from American Type Culture Collection (ATCC). Cells were maintained in the recommended culture medium (RPMI 1640) with 10% FBS and 0.05 mM BME at 37° C. and an atmosphere of 5% CO2.
The effect of Compounds on cell viability was determined using Cell Counting Kit-8 (CCK-8) assay according to the manufacturer's instructions. 95 μL of NCI-H929 cell suspension (20000 cells/well) in culture medium were seeded into 96-well plates and cultured 4 hrs. Each tested compound was serially diluted in DMSO, then 5 μL of the compound or DMSO was diluted in 95 μL medium once more. At last, 5 μL of the compound dilution was added to the corresponding well of the cell plate. After the addition of the tested compound, the cells were incubated at 37° C. in an atmosphere of 5% CO2 for 24 hrs. At the end, 10 μL of CCK-8 solution was added to each well of the plate and incubated for 1-4 hours. The plates were read at 450 nm on the microplate reader (BioTek Synergy 1MF). The readings were normalized to the vehicle cells, and the IC50 was calculated by nonlinear regression analysis using GraphPad Prism 6 software.

T1 sequence (Q07820 171-323): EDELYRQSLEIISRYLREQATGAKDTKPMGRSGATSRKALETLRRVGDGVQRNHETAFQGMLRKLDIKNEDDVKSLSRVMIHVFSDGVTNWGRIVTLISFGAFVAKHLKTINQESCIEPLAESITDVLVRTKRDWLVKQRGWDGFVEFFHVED

Row | Structure (SMILES) | pIC50 [1] | pIC50 [3] | pIC50 [2]
1 | Cn1nc2cc1CSc1cc(c3ccc(Cl)cc3c1)OCCCc1c(C(=O)O)n(C)c3c(c(Cl)ccc13)-c1c(nn3c1COCC3)CSC2 [compound 19, (Z)-1^6,9^6-dichloro-1^1,6^1-dimethyl-2^6,2^7-dihydro-1^1H,2^4H,6^1H-10-oxa-4,8-dithia-2(3,2)-pyrazolo[5,1-c][1,4]oxazina-1(7,3)-indola-6(3,5)-pyrazola-9(3,1)-naphthalenacyclotridecaphane-1^2-carboxylic acid] | 7.80 | 6.60 | 6.42
2 | Cn1nc2cc1CSc1cc(c3ccccc3c1)OCCCc1c(C(=O)O)n(C)c3c(c(Cl)ccc13)-c1c(nn3c1CCCC3)CSC2 [compound 20, (Z)-1^6-chloro-1^1,6^1-dimethyl-2^4,2^5,2^6,2^7-tetrahydro-1^1H,6^1H-10-oxa-4,8-dithia-2(3,2)-pyrazolo[1,5-a]pyridina-1(7,3)-indola-6(3,5)-pyrazola-9(3,1)-naphthalenacyclotridecaphane-1^2-carboxylic acid] | 7.82 | 7.31 | 6.76
3 | Cn1nc2cc1CSc1cc(c3ccccc3c1)OCCCc1c(C(=O)O)n(C)c3c(c(Cl)ccc13)-c1c(nn3c1OCCC3)CSC2 [compound 22, (Z)-1^6-chloro-1^1,61-dimethyl-2^6,2^7-dihydro-1^1H,2^5H,6^1H-10-oxa-4,8-dithia-2(3,2)-pyrazolo[5,1-b][1,3]oxazina-1(7,3)-indola-6(3,5)-pyrazola-9(3,1)-naphthalenacyclotridecaphane-1^2-carboxylic acid] | 7.80 | 6.65 | 5.94
4 | Cn1nc2cc1CSc1cc(c3ccc(F)cc3c1)OCCCc1c(C(=O)O)n(C)c3c(c(Cl)ccc13)-c1c(nn3c1CCCCC3)CSC2 [compound 28, (Z)-1^6-chloro-9^6-fluoro-1^1,6^1dimethyl-2^5,2^6,2^7,2^8-tetrahydro-1^1H,2^4H,6^1H-10-oxa-4,8-dithia-2(3,2)-pyrazolo[1,5-a]azepina-1(7,3)-indola-6(3,5)-pyrazola-9(3,1)-naphthalenacyclotridecaphane-1^2-carboxylic acid] | 7.80 | 7.26 | 6.74
5 | Cc1cc2ccc1CSCc1nn3c(c1-c1c(Cl)ccc4c(c(C(=O)O)n(C)c14)CCCOc1cc(cc4cc(F)ccc14)SC2)CCC3 [compound 29, 1^6-chloro-9^6-fluoro-1^1,6^2-dimethyl-2^5,2^6-dihydro-1^1H,2^4H-10-oxa-4,8-dithia-1(7,3)-indola-2(3,2)-pyrrolo[1,2-b]pyrazola-9(3,1)-naphthalena-6(1,4)-benzenacyclotridecaphane-1^2-carboxylic acid] | 7.83 | 6.80 | 6.46
6 | Cn1c(C(=O)O)c2c3ccc(Cl)c(c31)-c1c(nn3c1CCC3)CSCc1ccc(cn1)CSc1cc(c3ccc(F)cc3c1)OCCC2 [compound 31, 1^6-chloro-9^6-fluoro-1^1-methyl-2^5,2^6-dihydro-1^1H,2^4H-10-oxa-4,8-dithia-1(7,3)-indola-2(3,2)-pyrrolo[1,2-b]pyrazola-6(2,5)-pyridina-9(3,1)-naphthalenacyclotridecaphane-1^2-carboxylic acid] | 7.85 | 7.20 | 6.90
7 | Cc1c2c(nn1C)CN(CCO)Cc1cc(n(C)n1)CSc1cc(c3ccccc3c1)OCCCc1c(C(=O)O)n(C)c3c-2c(Cl)ccc13 [compound 50, (Z)-1^6-chloro-4-(2-hydroxyethyl)-1^1,2^1,2^5,6^1-tetramethyl-1^1H,2^1H,6^1H-10-oxa-8-thia-4-aza-1(7,3)-indola-2(4,3), 6(3,5)-dipyrazola-9(3,1)-naphthalenacyclotridecaphane-1^2-carboxylic acid] | 7.70 | 7.18 | 6.41

Second part, led by results:

Row | pIC50 [1] | pIC50 [3] | Structure (SMILES) | pIC50 [2]
8 | 7.83 | 5.30 | Cn1nc2cc1CSc1cc(c3ccccc3c1)OCCCc1c(C(=O)O)n(C)c3c(c(Cl)ccc13)-c1c(nn3c1CN(S(C)(=O)=O)CC3)CSC2 [compound 25, (Z)-1^6-chloro-1^1,6^1-dimethyl-2^5-(methylsulfonyl)-2^4,2^5,2^6,2^7-tetrahydro-1^1H,6^1H-10-oxa-4,8-dithia-2(3,2)-pyrazolo[1,5-a]pyrazina-1(7,3)-indola-6(3,5)-pyrazola-9(3,1)-naphthalenacyclotridecaphane-1^2-carboxylic acid] | 5.04
9 | 7.80 | 6.67 | CC(=O)N1Cc2cc(n(C)n2)CSc2cc(c3ccccc3c2)OCCCc2c(C(=O)O)n(C)c3c(c(Cl)ccc23)-c2c(nn(C)c2C)C1 [compound 35, (Z)-4-acetyl-1^6-chloro-1^1,2^1,2^5,6^1-tetramethyl-1^1H,2^1H,6^1H-10-oxa-8-thia-4-aza-1(7,3)-indola-2(4,3),6(3,5)-dipyrazola-9(3,1)-naphthalenacyclotridecaphane-1^2-carboxylic acid] | 6.12
10 | 7.92 | 6.44 | Cn1nc2cc1CSc1cc(c3ccc(F)cc3c1)OCCCc1c(C(=O)O)n(C)c3c(c(Cl)ccc13)-c1c(nn3c1CCC3)CN(S(=O)(=O)Cc1ccccc1)C2 [compound 41, (Z)-4-(benzylsulfonyl)-1^6-chloro-9^6-fluoro-1,6^1-dimethyl-2^5,2^6-dihydro-1^1H,2^4H,6^1H-10-oxa-8-thia-4-aza-1(7,3)-indola-2(3,2)-pyrrolo[1,2-b]pyrazola-6(3,5)-pyrazola-9(3,1)-naphthalenacyclotridecaphane-1^2-carboxylic acid] | 6.49
11 | 7.77 | 6.58 | Cn1nc2cc1CSc1cc(c3ccc(F)cc3c1)OCCCc1c(C(=O)O)n(C)c3c(c(Cl)ccc13)-c1c(nn3c1COCC3)CN(S(C)(=O)=O)C2 [compound 42, (Z)-1^6-chloro-9^6-fluoro-1^1,6^1-dimethyl-4-(methylsulfonyl)-2^6,2^7-dihydro-1^1H,2^4H,6^1H-10-oxa-8-thia-4-aza-2(3,2)-pyrazolo[5,1-c][1,4]oxazina-1(7,3)-indola-6(3,5)-pyrazola-9(3,1)-naphthalenacyclotridecaphane-1^2-carboxylic acid] | 6.45
12 | 7.92 | 6.72 | Cn1nc2cc1CSc1cc(c3ccc(F)cc3c1)OCCCc1c(C(=O)O)n(C)c3c(c(Cl)ccc13)-c1c(nn3c1COCC3)CN(S(=O)(=O)C1CC1)C2 [compound 43, (Z)-1^6-chloro-4-(cyclopropylsulfonyl)-9^6-fluoro-1^1,6^1-dimethyl-2^6,2^7-dihydro-1^1H,2^4H,6^1H-10-oxa-8-thia-4-aza-2(3,2)-pyrazolo[5,1-c][1,4]oxazina-1(7,3)-indola-6(3,5)-pyrazola-9(3,1)-naphthalenacyclotridecaphane-1^2-carboxylic acid] | 6.35
13 | 7.92 | 7.21 | Cc1c2c(nn1C)CN(S(=O)(=O)C(F)(F)F)Cc1cc(n(C)n1)CSc1cc(c3ccc(F)cc3c1)OCCCc1c(C(=O)O)n(C)c3c-2c(Cl)ccc13 [compound 46, (Z)-1^6-chloro-9^6-fluoro-1^1,2^1,2^5,6^1-tetramethyl-4-((trifluoromethyl)sulfonyl)-1^1H,2^1H,6^1H-10-oxa-8-thia-4-aza-1(7,3)-indola-2(4,3),6(3,5)-dipyrazola-9(3,1)-naphthalenacyclotridecaphane-1^2-carboxylic acid] | 7.31
14 | 7.72 | 6.96 | Cn1nc2cc1CSc1cc(c3ccc(F)cc3c1)OCCCc1c(C(=O)O)n(C)c3c(c(Cl)ccc13)-c1c(C(F)F)nn(C)c1CN(S(C)(=O)=O)C2 [compound 51, (Z)-1^6-chloro-2^3-(difluoromethyl)-9^6-fluoro-1^1,2^1,6^1-trimethyl-4-(methylsulfonyl)-1^1H,2^1H,6^1H-10-oxa-8-thia-4-aza-1(7,3)-indola-2(4,5),6(3,5)-dipyrazola-9(3,1)-naphthalenacyclotridecaphane-1^2-carboxylic acid] | 6.82
